Laboratory results taken from ChEMBL document CHEMBL1201862, “PubChem BioAssay data set” (2004).
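Grown in 96-well plates, cells were treated for 48 hours with each compound at five concentrations. Insufficient inhibition: endpoint recorded as highest concentration tested. GI50 is the concentration that inhibits growth by half.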 Active and inactive are the calls of the source. No stated cut-off is given here; in the data, active = GI50 up to about 1.1 µM and inactive = higher.

Key:
Experiment in all cases: NCI anticancer screen, dose series, 48 h
CAKI-1 = system: CAKI-1
DU-145 = system: DU-145
KM12 = system: KM12
MDA-MB-435 = system: MDA-MB-435
MDA-N = system: MDA-N
NCI-H23 = system: NCI-H23
PC-3 = system: PC-3
RPMI-8226 = system: RPMI-8226
SF-268 = system: SF-268
SF-539 = system: SF-539
SK-OV-3 = system: SK-OV-3
SN12C = system: SN12C
SW-620 = system: SW-620
T47D = system: T47D
U-251 = system: U-251
SNB-19 = system: SNB-19
UO-31 = system: UO-31

Measured: GI50

CCOC(=O)c1nc2cc(C(F)(F)F)ccc2nc1Nc1ccc(F)cc1
inactive: CAKI-1 > 100 µM | DU-145 > 100 µM | KM12 > 100 µM | MDA-MB-435 > 100 µM | MDA-N > 100 µM | NCI-H23 74.1 µM | PC-3 32.8 µM | RPMI-8226 6.21 µM | SF-268 > 100 µM | SF-539 19.5 µM | SK-OV-3 94.4 µM | SN12C > 100 µM | SW-620 74.1 µM | T47D > 100 µM | U-251 24.5 µM

CCOC(=O)c1cc2c3ccn(Cc4ccccc4)c3c3c(C)noc3c2[nH]1
inactive: CAKI-1 > 100 µM | DU-145 > 100 µM | KM12 > 100 µM | MDA-MB-435 > 100 µM | MDA-N > 100 µM | NCI-H23 > 100 µM | PC-3 > 100 µM | RPMI-8226 > 100 µM | SF-268 > 100 µM | SN12C > 100 µM | SNB-19 > 100 µM | SW-620 > 100 µM | T47D > 100 µM | U-251 > 100 µM | UO-31 > 100 µM

CCOP(=O)(OCC)OC1c2[nH]ccc2-c2cc(C(=O)OC)[nH]c2C1OC (stereo unspecified)
inactive: CAKI-1 70.3 µM | DU-145 > 100 µM | KM12 58.7 µM | MDA-MB-435 77.4 µM | MDA-N > 100 µM | NCI-H23 > 100 µM | PC-3 66.8 µM | SF-268 > 100 µM | SF-539 > 100 µM | SK-OV-3 > 100 µM | SN12C > 100 µM | SNB-19 > 100 µM | SW-620 > 100 µM | T47D 51.8 µM | U-251 > 100 µM | UO-31 46.3 µM

c1csc(-c2sc(-c3ccsc3)cc2Cc2ccsc2)c1
inactive: CAKI-1 > 10 µM | DU-145 > 10 µM | KM12 > 10 µM | MDA-MB-435 > 10 µM | MDA-N > 10 µM | NCI-H23 > 10 µM | PC-3 > 10 µM | RPMI-8226 > 10 µM | SF-268 > 10 µM | SK-OV-3 > 10 µM | SN12C > 10 µM | SW-620 > 10 µM | T47D > 10 µM

CC(=O)O[C@H]1[C@@H](OC2CCCC2(c2ccccc2)c2ccccc2)O[N+]([O-])=C[C@@H]1c1ccccc1 (stereo partly specified)
inactive: CAKI-1 4.85 µM | DU-145 5.75 µM | KM12 11.3 µM | MDA-MB-435 3.34 µM | MDA-N 4.94 µM | NCI-H23 11.9 µM | PC-3 8.24 µM | RPMI-8226 2.01 µM | SF-268 5.01 µM | SK-OV-3 14.5 µM | SN12C 4.66 µM | SNB-19 15.6 µM | SW-620 3.14 µM | T47D 7.52 µM | U-251 7.83 µM | UO-31 10.7 µM

CC1=NC(=N)N=C(C)C1/N=N/c1ccc2[nH]c(C)nc2c1 (stereo unspecified)
inactive: CAKI-1 > 100 µM | DU-145 > 100 µM | KM12 > 100 µM | MDA-MB-435 > 100 µM | MDA-N > 100 µM | NCI-H23 > 100 µM | PC-3 > 100 µM | RPMI-8226 > 100 µM | SF-268 > 100 µM | SF-539 > 100 µM | SK-OV-3 > 100 µM | SN12C > 100 µM | SNB-19 > 100 µM | SW-620 > 100 µM | T47D > 100 µM | U-251 > 100 µM

O=[N+]([O-])c1cnc(N(CCO)CCO)s1
inactive: CAKI-1 > 100 µM | DU-145 > 100 µM | KM12 > 100 µM | MDA-MB-435 > 100 µM | MDA-N > 100 µM | NCI-H23 > 100 µM | PC-3 > 100 µM | SF-268 > 100 µM | SF-539 > 100 µM | SK-OV-3 > 100 µM | SN12C > 100 µM | SNB-19 > 100 µM | SW-620 > 100 µM | T47D > 100 µM | U-251 > 100 µM | UO-31 > 100 µM

CC(C)=CCC/C(C)=C/Cc1c2c(c3oc(-c4ccc(O)c(O)c4)c(O)c(=O)c3c1O)C=CC(C)(C)O2
inactive: CAKI-1 1.78 µM | DU-145 2.24 µM | KM12 3.45 µM | MDA-MB-435 5.33 µM | MDA-N 5.02 µM | NCI-H23 5.41 µM | PC-3 5.16 µM | RPMI-8226 1.82 µM | SF-268 3.56 µM | SF-539 1.79 µM | SK-OV-3 2.57 µM | SN12C 5.98 µM | SNB-19 5.85 µM | T47D 1.65 µM | U-251 3.21 µM | UO-31 3.44 µM

C#CCOC(=O)C(N)CS (stereo unspecified)
inactive: CAKI-1 > 100 µM | DU-145 > 100 µM | KM12 > 100 µM | MDA-MB-435 > 100 µM | MDA-N > 100 µM | NCI-H23 > 100 µM | PC-3 > 100 µM | RPMI-8226 > 100 µM | SF-268 > 100 µM | SK-OV-3 > 100 µM | SN12C > 100 µM | SW-620 > 100 µM | T47D > 100 µM | U-251 > 100 µM | UO-31 > 100 µM

CCCCCCCCCCCCCCCCOCC(Cl)CP(=O)(O)OP(=O)(O)OCC1OC(n2cnc3c(N)ncnc32)C(O)C1O (stereo unspecified)
inactive: CAKI-1 > 100 µM | DU-145 > 100 µM | KM12 > 100 µM | MDA-MB-435 > 100 µM | MDA-N > 100 µM | NCI-H23 > 100 µM | PC-3 > 100 µM | SF-268 > 100 µM | SF-539 > 100 µM | SK-OV-3 > 100 µM | SN12C > 100 µM | SNB-19 60.3 µM | SW-620 > 100 µM | T47D > 100 µM | U-251 74 µM | UO-31 > 100 µM

C=C1C(=O)O[C@@H]2/C=C(/C)[C@@H](OC(C)=O)C[C@@H](O)/C(C)=C\[C@@H](OC(=O)[C@]3(C)O[C@@H]3C)[C@@H]12
inactive: CAKI-1 3.48 µM | DU-145 14.6 µM | KM12 17.5 µM | MDA-MB-435 15.3 µM | MDA-N 15.7 µM | NCI-H23 17.3 µM | PC-3 17.6 µM | RPMI-8226 5.78 µM | SF-268 18.9 µM | SF-539 21.2 µM | SK-OV-3 45.8 µM | SN12C 12.3 µM | SNB-19 47.4 µM | SW-620 5.98 µM | T47D 11.1 µM | U-251 17.5 µM

CN(C)Cc1cc(C(=O)/C=C/c2ccc(Cl)cc2Cl)cc(CN(C)C)c1O
inactive: CAKI-1 2.36 µM | DU-145 4.73 µM | KM12 1.47 µM | MDA-MB-435 4.06 µM | MDA-N 1.88 µM | NCI-H23 6.9 µM | PC-3 1.65 µM | RPMI-8226 3.85 µM | SF-268 3.88 µM | SF-539 4.4 µM | SN12C 1.78 µM | SNB-19 4.12 µM | SW-620 2.81 µM | T47D 5.01 µM | U-251 3.52 µM | UO-31 2.07 µM
